Reference: ChEMBL document CHEMBL1134835, “Analogues of prazosin that bear a benextramine-related polyamine backbone exhibit different antagonism toward alpha1-adrenoreceptor subtypes” (J Med Chem, 2001)

What follows are compounds tested against T1, Alpha-1A adrenergic receptor (Rattus norvegicus) (UniProt P43140). Conditions: not given.
T1 sequence (whole entry): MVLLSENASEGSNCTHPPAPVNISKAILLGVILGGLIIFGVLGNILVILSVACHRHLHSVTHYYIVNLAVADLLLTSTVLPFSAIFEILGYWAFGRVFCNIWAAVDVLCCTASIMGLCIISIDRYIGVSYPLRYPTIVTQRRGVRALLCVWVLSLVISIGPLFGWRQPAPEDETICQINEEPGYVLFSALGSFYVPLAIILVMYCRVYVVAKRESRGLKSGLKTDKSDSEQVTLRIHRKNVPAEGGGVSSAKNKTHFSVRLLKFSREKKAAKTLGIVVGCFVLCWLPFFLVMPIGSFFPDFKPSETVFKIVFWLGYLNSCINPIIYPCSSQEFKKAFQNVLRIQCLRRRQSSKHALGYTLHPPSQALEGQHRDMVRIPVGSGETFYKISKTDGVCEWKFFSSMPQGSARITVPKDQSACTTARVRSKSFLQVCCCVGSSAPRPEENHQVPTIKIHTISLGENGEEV

SMILES | pKb
COc1cc2nc(N3CCN(C(=O)c4ccccc4C=O)CC3)nc(N)c2cc1OC | 6.94
COc1cc2nc(N(C)CCCCCCN(C)C(=O)c3ccccc3CNCCCCCCNCCCCCCNCCCCCCNCc3ccccc3C(=O)N(C)CCCCCCN(C)c3nc(N)c4cc(OC)c(OC)cc4n3)nc(N)c2cc1OC | 8.17
COc1cc2nc(N3CCN(C(=O)c4cccc(C)c4)CC3)nc(N)c2cc1OC | 8.49
COc1cc2nc(N3CCN(C(=O)c4ccccc4CNCCCCCCNCCCCCCNCCCCCCNCc4ccccc4C(=O)N4CCN(c5nc(N)c6cc(OC)c(OC)cc6n5)CC4)CC3)nc(N)c2cc1OC | 7.74
COc1cc2nc(N3CCN(C(=O)c4ccc(C=O)cc4)CC3)nc(N)c2cc1OC | 7.59
COc1cc2nc(N3CCN(C(=O)c4ccco4)CC3)nc(N)c2cc1OC | 8.99
COc1ccc(C(=O)N2CCN(c3nc(N)c4cc(OC)c(OC)cc4n3)CC2)cc1 | 8.46
COc1cc2nc(N(C)CCCCCCN(C)C(=O)c3ccc(CNCCCCCCNCCCCCCNCCCCCCNCc4ccc(C(=O)N(C)CCCCCCN(C)c5nc(N)c6cc(OC)c(OC)cc6n5)cc4)cc3)nc(N)c2cc1OC | 8.53
COc1cc2nc(N3CCN(C(=O)c4cccc(C(F)(F)F)c4)CC3)nc(N)c2cc1OC | 7.49
COc1cc2nc(N3CCN(C(=O)c4ccccc4C(F)(F)F)CC3)nc(N)c2cc1OC | 6.43
COc1cccc(C(=O)N2CCN(c3nc(N)c4cc(OC)c(OC)cc4n3)CC2)c1 | 7.87
COc1cc2nc(N3CCN(C(=O)c4ccc(C(F)(F)F)cc4)CC3)nc(N)c2cc1OC | 7.43
COc1cc2nc(N3CCN(C(=O)c4cccc(CNCCCCCCNCCCCCCNCCCCCCNCc5cccc(C(=O)N6CCN(c7nc(N)c8cc(OC)c(OC)cc8n7)CC6)c5)c4)CC3)nc(N)c2cc1OC | 7.29

Each compound was assayed against T2, Alpha-1B adrenergic receptor (Rattus norvegicus) (UniProt P15823). Conditions: Spleen.
T2 sequence (whole entry): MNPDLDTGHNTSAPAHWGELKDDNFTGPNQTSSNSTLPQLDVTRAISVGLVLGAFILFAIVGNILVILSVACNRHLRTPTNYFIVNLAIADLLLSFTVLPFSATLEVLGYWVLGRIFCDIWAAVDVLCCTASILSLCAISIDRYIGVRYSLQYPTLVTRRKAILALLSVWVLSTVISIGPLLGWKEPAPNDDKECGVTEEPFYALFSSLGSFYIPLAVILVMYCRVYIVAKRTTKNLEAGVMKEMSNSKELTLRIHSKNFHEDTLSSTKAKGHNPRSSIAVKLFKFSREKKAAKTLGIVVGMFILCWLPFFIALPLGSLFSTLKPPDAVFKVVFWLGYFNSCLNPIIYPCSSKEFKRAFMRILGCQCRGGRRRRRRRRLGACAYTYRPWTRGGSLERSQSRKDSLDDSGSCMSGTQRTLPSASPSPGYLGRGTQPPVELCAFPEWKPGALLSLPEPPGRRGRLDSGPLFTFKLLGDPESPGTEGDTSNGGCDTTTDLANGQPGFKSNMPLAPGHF
Description: Non competitive irreversible antagonism at alpha-1B-adrenergic receptors on isolated spleen from rat.

SMILES | pKb
COc1cc2nc(N3CCN(C(=O)c4ccccc4C=O)CC3)nc(N)c2cc1OC | 6.5
COc1cc2nc(N(C)CCCCCCN(C)C(=O)c3ccccc3CNCCCCCCNCCCCCCNCCCCCCNCc3ccccc3C(=O)N(C)CCCCCCN(C)c3nc(N)c4cc(OC)c(OC)cc4n3)nc(N)c2cc1OC | 7.22
COc1cc2nc(N3CCN(C(=O)c4cccc(C)c4)CC3)nc(N)c2cc1OC | 8.12
COc1cc2nc(N3CCN(C(=O)c4ccccc4CNCCCCCCNCCCCCCNCCCCCCNCc4ccccc4C(=O)N4CCN(c5nc(N)c6cc(OC)c(OC)cc6n5)CC4)CC3)nc(N)c2cc1OC | 6.8
COc1cc2nc(N3CCN(C(=O)c4ccc(C=O)cc4)CC3)nc(N)c2cc1OC | 6.95
COc1ccc(C(=O)N2CCN(c3nc(N)c4cc(OC)c(OC)cc4n3)CC2)cc1 | 7.74
COc1cc2nc(N(C)CCCCCCN(C)C(=O)c3ccc(CNCCCCCCNCCCCCCNCCCCCCNCc4ccc(C(=O)N(C)CCCCCCN(C)c5nc(N)c6cc(OC)c(OC)cc6n5)cc4)cc3)nc(N)c2cc1OC | 7.56
COc1cc2nc(N3CCN(C(=O)c4cccc(C(F)(F)F)c4)CC3)nc(N)c2cc1OC | 7.16
COc1cc2nc(N3CCN(C(=O)c4ccccc4C(F)(F)F)CC3)nc(N)c2cc1OC | 6.55
COc1cccc(C(=O)N2CCN(c3nc(N)c4cc(OC)c(OC)cc4n3)CC2)c1 | 7.84
COc1cc2nc(N3CCN(C(=O)c4ccc(C(F)(F)F)cc4)CC3)nc(N)c2cc1OC | 7.45
COc1cc2nc(N3CCN(C(=O)c4cccc(CNCCCCCCNCCCCCCNCCCCCCNCc5cccc(C(=O)N6CCN(c7nc(N)c8cc(OC)c(OC)cc8n7)CC6)c5)c4)CC3)nc(N)c2cc1OC | 6.5

Each compound was assayed against T3, Alpha-1D adrenergic receptor (Rattus norvegicus) (UniProt P23944). Conditions: Thoracic aorta.
T3 sequence (whole entry): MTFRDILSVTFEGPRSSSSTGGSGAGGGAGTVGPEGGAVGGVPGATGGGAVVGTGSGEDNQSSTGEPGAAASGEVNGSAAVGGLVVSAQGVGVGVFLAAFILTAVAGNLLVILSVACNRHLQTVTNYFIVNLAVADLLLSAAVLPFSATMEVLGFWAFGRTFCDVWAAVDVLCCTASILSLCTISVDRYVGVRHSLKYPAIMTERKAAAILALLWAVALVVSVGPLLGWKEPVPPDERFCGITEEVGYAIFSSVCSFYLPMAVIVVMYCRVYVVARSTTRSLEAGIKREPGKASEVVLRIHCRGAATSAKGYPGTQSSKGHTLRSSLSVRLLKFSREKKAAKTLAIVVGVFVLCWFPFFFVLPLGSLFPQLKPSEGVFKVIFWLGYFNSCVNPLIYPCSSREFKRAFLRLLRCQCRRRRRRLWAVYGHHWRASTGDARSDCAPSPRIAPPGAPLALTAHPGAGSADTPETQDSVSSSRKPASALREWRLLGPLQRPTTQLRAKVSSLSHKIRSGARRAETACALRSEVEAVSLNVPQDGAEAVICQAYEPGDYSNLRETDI
Description: Non competitive irreversible antagonism at alpha-1D-adrenergic receptors on isolated thoracic aorta from rat.

SMILES | pKb
COc1cc2nc(N3CCN(C(=O)c4ccccc4C=O)CC3)nc(N)c2cc1OC | 7.56
COc1cc2nc(N(C)CCCCCCN(C)C(=O)c3ccccc3CNCCCCCCNCCCCCCNCCCCCCNCc3ccccc3C(=O)N(C)CCCCCCN(C)c3nc(N)c4cc(OC)c(OC)cc4n3)nc(N)c2cc1OC | 8.47
COc1cc2nc(N3CCN(C(=O)c4cccc(C)c4)CC3)nc(N)c2cc1OC | 9.12
COc1cc2nc(N3CCN(C(=O)c4ccccc4CNCCCCCCNCCCCCCNCCCCCCNCc4ccccc4C(=O)N4CCN(c5nc(N)c6cc(OC)c(OC)cc6n5)CC4)CC3)nc(N)c2cc1OC | 7.94
COc1cc2nc(N3CCN(C(=O)c4ccc(C=O)cc4)CC3)nc(N)c2cc1OC | 8.38
COc1cc2nc(N3CCN(C(=O)c4ccco4)CC3)nc(N)c2cc1OC | 9.71
COc1ccc(C(=O)N2CCN(c3nc(N)c4cc(OC)c(OC)cc4n3)CC2)cc1 | 8.98
COc1cc2nc(N(C)CCCCCCN(C)C(=O)c3ccc(CNCCCCCCNCCCCCCNCCCCCCNCc4ccc(C(=O)N(C)CCCCCCN(C)c5nc(N)c6cc(OC)c(OC)cc6n5)cc4)cc3)nc(N)c2cc1OC | 7.9
COc1cc2nc(N3CCN(C(=O)c4cccc(C(F)(F)F)c4)CC3)nc(N)c2cc1OC | 8.38
COc1cc2nc(N3CCN(C(=O)c4ccccc4C(F)(F)F)CC3)nc(N)c2cc1OC | 8.31
COc1cccc(C(=O)N2CCN(c3nc(N)c4cc(OC)c(OC)cc4n3)CC2)c1 | 7.46
COc1cc2nc(N3CCN(C(=O)c4ccc(C(F)(F)F)cc4)CC3)nc(N)c2cc1OC | 8.31
COc1cc2nc(N3CCN(C(=O)c4cccc(CNCCCCCCNCCCCCCNCCCCCCNCc5cccc(C(=O)N6CCN(c7nc(N)c8cc(OC)c(OC)cc8n7)CC6)c5)c4)CC3)nc(N)c2cc1OC | 7.43
